According to PMC9029893 (International Journal of Molecular Sciences, 2022):

Legend:
HUVEC cells [1] = experiment: Glucose utilization assay (2-NBDG uptake); type: cell-based, human; settings: 24 h, then insulin and 2-NBDG
Experimental: HUVEC were seeded at a density of 20,000 cells per well in 48-well plates, and were cultured in standard conditions for 24 h (medium EGM-2; volume 0.2 mL). Following this, compounds 1–8 were added at concentrations of 0.1 and 0.3 mM, and the HUVECs were incubated for another 24 h. Cells treated with ᴅ-glucose (final concentration in a sample 0.1 mM) were used as positive controls. On the following day, the cells were rinsed with PBS (Biomed Lublin, Lublin, Poland) and cultured for two hours in glucose-free DMEM medium supplemented with 1% BSA (bovine serum albumin, Sigma, St. Louis, MO, USA). Then, the cells were co-treated with insulin (final concentration 0.0001 mM) for 30 min. Afterwards, the medium was discarded and the cells were treated with 2-NBDG (final concentration 0.05 mM) for 30 min, followed by removal of the solutions of each well. The cells were washed twice with 100 µL PBS, and lysed using 1% Triton X-100 solution in PBS. The fluorescence was recorded using a microplate reader (Biotek, Instruments, Winooski, VT, USA) at 480/530 nm.
The concentration of intracellular 2-NBDG was calculated using a calibration curve obtained using 2-NBDG at concentrations ranging from 0.0001 to 0.025 mM in lysis buffer. The results are presented as mean ± SD, n = 4–6. The coefficient of variation for the assay was calculated (CV = 2.2%, n = 8).

[2] = tested on: tissue plasminogen activator (t-PA) release from HUVEC; experiment: t-PA release from HUVEC (ELISA); type: cell-based, human; settings: 24 h, HUVEC supernatants
Experimental: The influence on tissue plasminogen activator release from HUVECs was assessed using an ELISA kit (Abcam, Cambridge, UK). HUVECs seeded at a density of 10,000 per well on 96-well plates were co-incubated with compounds 1–5 at the concentrations of 0.3 and 1.0 mM for an additional 24 h (37 °C, 5% CO2). The cell supernatants were discarded into Eppendorf tubes and preserved at −20° C until analysis. Before the tests, the samples were thawed at room temperature for 15 min, and diluted 2.5-fold with diluent in Elisa kit. The measurements of t-PA concentrations in cell supernatants were conducted according to the manufacturer’s protocol using 3,3’,5,5’-tetramethylbenzidine (TMB) as a chromogenic substrate. The concentration of t-PA in HUVEC supernatants was determined using a calibration curve (R^2 = 0.9936). The results are presented as mean ± SD, n = 6. The CV for the applied method was 7.21%.

[3] = tested on: coagulation in human citrate plasma; experiment: Coagulation assay (endogenous thrombin generation); type: biochemical
Experimental: These reagents induce a feedback reaction leading to the generation of endogenous thrombin, and coagulation. The other experimental conditions were the same as for the CL-test (Section 4.12).
The obtained curves were analyzed using dedicated software that estimates the following parameters: TGt—thrombin generation time (s), Fmax—maximum clotting (%T), Tf—plasma clotting time (s), Fvo—initial plasma clotting velocity (%T/min), Sf—area under the clot formation curve (%Txmin), Tc—clot stabilization time (s), S—area under the curve of coagulation (%Txmin).

[4] = WST-1 cell viability assay, HUVEC; settings: human, HUVEC cells
Experimental: (§1) HUVEC and AoSMC viability were tested using the WST-1 cell viability assay (Takara Bio Europe, Saint-Germain-en-Laye, France). […] Briefly, HUVEC and AoSMC were seeded at densities of 7500 and 5000 cells per well on 96-well plates. The cells were cultivated for up to 24 h to achieve 70% confluency, and subsequently treated with tested compounds diluted in medium (1 + 9; v = 100 μL) or pure medium (control). The plates were incubated at 37 °C (5% CO2) for the next 24 h. Then, the cells were rinsed with 100 μL culture medium, and WST-1 reagent diluted in medium (100 μL) was added; the plates were then incubated again (37 °C, 5% CO2) for another 90 min. The absorbance was measured at 450 nm (iMARK, Bio-Rad, Hercules, CA, USA). The experiments were performed in multiplicate (n = 8) and the results were presented as mean ± SD. The cell viability was expressed as a percentage of the control samples, which constituted 100% viability. […] The variability coefficient of the method was estimated (CV(HUVEC) = 8.94%, n = 8; CV(AoSMC) = 5.84%, n = 10).

AoSMC cells = experiment: WST-1 cell viability assay, AoSMC; settings: Homo sapiens, 24 h, read-out: Viability-IC50, AoSMC cells
Experimental: as §1

HUVEC cells [5] = experiment: WST-1 cell viability assay, HUVEC; settings: for Decrease of HUVECs viability (growth inhibition): 0.3 mM, vs control; for IC50: Homo sapiens, HUVEC, 24 h, read-out: Viability-IC50, HUVEC cells
Experimental: as §1

[6] = WST-1 cell viability assay, AoSMC; settings: human, AoSMC cells
Experimental: as §1

Row | SMILES | Glucose uptake (intracellular 2-NBDG) (HUVEC cells [1]; 0.1 mM) [mM] | Glucose uptake (intracellular 2-NBDG) (HUVEC cells [1]; 0.3 mM) [mM] | Released t-PA ([2]; 0.3 mM) [pg/mL] | Released t-PA ([2]; 1.0 mM) [pg/mL] | Fmax—maximum clotting ([3]; 0.06 mM) [%T] | Fvo—initial plasma clotting velocity ([3]; 0.06 mM) [%T/min] | Sc—area under the curve of a stable clot formation ([3]; 0.06 mM) [%T x min] | Sf—area under the clot formation curve ([3]; 0.06 mM) [%T x min] | S—overall potential of clot formation ([3]; 0.06 mM) [%T x min] | TGt—thrombin generation time ([3]; 0.06 mM) [s] | Tf—plasma clotting time ([3]; 0.06 mM) [s] | Fmax—maximum clotting ([3]; 0.3 mM) [%T] | Fvo—initial plasma clotting velocity ([3]; 0.3 mM) [%T/min] | Sc—area under the curve of a stable clot formation ([3]; 0.3 mM) [%T x min] | Sf—area under the clot formation curve ([3]; 0.3 mM) [%T x min] | S—overall potential of clot formation ([3]; 0.3 mM) [%T x min] | TGt—thrombin generation time ([3]; 0.3 mM) [s] | Tf—plasma clotting time ([3]; 0.3 mM) [s] | Fmax—maximum clotting ([3]; 0.6 mM) [%T] | Fvo—initial plasma clotting velocity ([3]; 0.6 mM) [%T/min] | also measured
1 | CCCCCCCCS(=O)(=O)NC(N)=NC(=N)N(C)C [Compound 2] | 0.0139 ± 0.0003 | 0.0146 ± 0.001 | 1633.9 ± 263.2 | 990.0 ± 158.5 | 85.20 ± 6.52 | 124.35 ± 37.66 | 562.66 ± 156.02 | 91.44 ± 30.65 | 1638.19 ± 135.59 | 151.33 ± 26.37 | 98.28 ± 33.46 | 85.12 ± 5.67 | 142.17 ± 46.90 | 602.85 ± 84.63 | 79.63 ± 20.32 | 1641.98 ± 118.29 | 135.67 ± 25.90 | 85.08 ± 25.10 | 83.60 ± 6.72 | 140.83 ± 37.45 | Sc—area under the curve of a stable clot formation ([3]; 0.6 mM): 583.07 ± 90.13 %T x min; Sf—area under the clot formation curve ([3]; 0.6 mM): 88.00 ± 18.58 %T x min; S—overall potential of clot formation ([3]; 0.6 mM): 1611.84 ± 135.58 %T x min; TGt—thrombin generation time ([3]; 0.6 mM): 153.33 ± 21.05 s; Tf—plasma clotting time ([3]; 0.6 mM): 91.58 ± 19.43 s; Fmax—maximum clotting ([3]; 1.5 mM): 76.35 ± 9.75 %T; Fvo—initial plasma clotting velocity ([3]; 1.5 mM): 120.32 ± 48.40 %T/min; Sc—area under the curve of a stable clot formation ([3]; 1.5 mM): 511.33 ± 178.11 %T x min; Sf—area under the clot formation curve ([3]; 1.5 mM): 87.66 ± 44.66 %T x min; S—overall potential of clot formation ([3]; 1.5 mM): 1467.86 ± 181.79 %T x min; TGt—thrombin generation time ([3]; 1.5 mM): 170.50 ± 31.73 s; Tf—plasma clotting time ([3]; 1.5 mM): 101.45 ± 38.76 s; viability at 24 h, 0.06 mM [4]: 75.9 ± 5.85%; viability at 24 h, 0.3 mM [4]: 71.5 ± 3.12%; viability at 24 h, 3 mM [4]: 41.5%; viability at 24 h, 5 mM [4]: 32.1%; IC50 (AoSMC cells): 3.71 ± 0.54 mM
2 | CN(C)C(=N)N=C(N)NS(=O)(=O)C1CCCCC1 [Compound 3] | 0.0137 ± 0.0003 | 0.0144 ± 0.0005 | 1550.9 ± 135.2 | 1267.1 ± 350.6 | 84.78 ± 5.57 | 108.56 ± 28.63 | 586.27 ± 95.97 | 102.35 ± 29.66 | 1628.36 ± 118.58 | 155.00 ± 20.58 | 108.30 ± 35.15 | 82.66 ± 7.51 | 113.42 ± 23.98 | 766.41 ± 394.94 | 100.51 ± 28.00 | 1580.91 ± 150.03 | 139.60 ± 7.44 | 108.58 ± 33.64 | 82.44 ± 5.61 | 127.78 ± 40.82 | Sc—area under the curve of a stable clot formation ([3]; 0.6 mM): 560.45 ± 102.47 %T x min; Sf—area under the clot formation curve ([3]; 0.6 mM): 107.67 ± 29.19 %T x min; S—overall potential of clot formation ([3]; 0.6 mM): 1580.02 ± 119.57 %T x min; TGt—thrombin generation time ([3]; 0.6 mM): 158.40 ± 13.03 s; Tf—plasma clotting time ([3]; 0.6 mM): 112.94 ± 35.34 s; Fmax—maximum clotting ([3]; 1.5 mM): 77.50 ± 8.20 %T; Fvo—initial plasma clotting velocity ([3]; 1.5 mM): 135.98 ± 31.06 %T/min; Sc—area under the curve of a stable clot formation ([3]; 1.5 mM): 537.91 ± 99.63 %T x min; Sf—area under the clot formation curve ([3]; 1.5 mM): 83.28 ± 17.34 %T x min; S—overall potential of clot formation ([3]; 1.5 mM): 1494.31 ± 163.29 %T x min; TGt—thrombin generation time ([3]; 1.5 mM): 165.40 ± 28.25 s; Tf—plasma clotting time ([3]; 1.5 mM): 93.42 ± 26.49 s; Decrease of HUVECs viability (growth inhibition) (HUVEC cells [5]): ~24.15%; IC50 (HUVEC cells [5]): 3.51 ± 0.24 mM; viability at 24 h, 3 mM [6]: > 76%
3 | CCCCS(=O)(=O)NC(N)=NC(=N)N(C)C [Compound 1] | 0.0134 ± 0.0004 | 0.0142 ± 0.0007 | 2427.2 ± 246.0 | 1709.5 ± 219.1 | 76.30 ± 7.79 | 97.22 ± 36.13 | 458.27 ± 113.77 | 140.16 ± 31.01 | 1449.09 ± 154.09 | 161.33 ± 35.27 | 155.67 ± 45.29 | 82.67 ± 4.79 | 117.65 ± 36.38 | 544.47 ± 81.13 | 104.53 ± 38.44 | 1586.01 ± 103.04 | 162.33 ± 37.96 | 109.63 ± 40.06 | 75.62 ± 9.88 | 96.52 ± 20.91 | Sc—area under the curve of a stable clot formation ([3]; 0.6 mM): 444.40 ± 91.71 %T x min; Sf—area under the clot formation curve ([3]; 0.6 mM): 119.01 ± 48.07 %T x min; S—overall potential of clot formation ([3]; 0.6 mM): 1442.42 ± 198.39 %T x min; TGt—thrombin generation time ([3]; 0.6 mM): 176.83 ± 57.02 s; Tf—plasma clotting time ([3]; 0.6 mM): 138.77 ± 59.29 s; Fmax—maximum clotting ([3]; 1.5 mM): 74.15 ± 7.83 %T; Fvo—initial plasma clotting velocity ([3]; 1.5 mM): 107.77 ± 35.80 %T/min; Sc—area under the curve of a stable clot formation ([3]; 1.5 mM): 452.95 ± 102.22 %T x min; Sf—area under the clot formation curve ([3]; 1.5 mM): 114.89 ± 64.82 %T x min; S—overall potential of clot formation ([3]; 1.5 mM): 1435.77 ± 143.80 %T x min; TGt—thrombin generation time ([3]; 1.5 mM): 172.00 ± 43.56 s; Tf—plasma clotting time ([3]; 1.5 mM): 135.33 ± 75.79 s; viability at 24 h, 0.06 mM [4]: 76.3 ± 9.19%; viability at 24 h, 0.3 mM [4]: 71 ± 8.45%; Decrease of HUVECs viability (growth inhibition) (HUVEC cells [5]): approximately 28.96%; IC50 (HUVEC cells [5]): 3.64 ± 0.26 mM; viability at 24 h, 3 mM [6]: > 59%
